These results are taken from patent publication US7705030B2, “Amino-5-(5-membered)hetero-arylimidazolone compounds and the use thereof for β-secretase modulation” (Wyeth LLC, priority 2005, dated 2010).

For one series, the target named is human BACE1 (Homo sapiens, UniProt P56817). Description: Fluorescent kinetic assay: Evaluation of BACE-1 Binding Affinity of Test Compounds. It counts as biochemical. The following applies: 10 nM enzyme, 25 μM substrate WABC-6, 50 mM Na-Acetate pH 4.5, room temperature. The method in brief:
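Run with 10 nM human BACE1 and 25 μM WABC-6 FRET peptide in 50 mM Na-acetate pH 4.5, 0.05% CHAPS, 25% PBS at room temperature. Fluorescence (ex 320/em 420 nm) was read every 40 sec for 30 min, and initial cleavage rates were taken from linear slopes across ≥10 inhibitor concentrations.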

SMILES strings stand for the structures.

human BACE1, sequence (P56817 46-501): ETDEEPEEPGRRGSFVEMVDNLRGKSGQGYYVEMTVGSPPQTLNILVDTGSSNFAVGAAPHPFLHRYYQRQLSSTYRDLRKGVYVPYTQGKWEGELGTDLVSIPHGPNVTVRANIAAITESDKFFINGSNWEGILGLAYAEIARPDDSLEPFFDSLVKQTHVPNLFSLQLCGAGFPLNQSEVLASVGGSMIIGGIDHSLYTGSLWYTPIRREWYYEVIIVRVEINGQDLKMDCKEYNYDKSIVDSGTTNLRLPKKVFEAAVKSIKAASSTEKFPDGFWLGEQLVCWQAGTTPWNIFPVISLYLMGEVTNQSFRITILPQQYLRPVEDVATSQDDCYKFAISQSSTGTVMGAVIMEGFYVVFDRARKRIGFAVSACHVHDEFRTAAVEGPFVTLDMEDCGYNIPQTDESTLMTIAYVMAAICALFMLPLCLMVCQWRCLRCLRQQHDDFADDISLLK

As usually defined, the IC50 is the concentration needed to halve the response being measured. As a reminder, the melting point is the temperature of the solid-liquid transition. In turn, `CCC(C)C(=O)c1cc(C2(c3cccc(-c4cccnc4F)c3)N=C(N)N(C)C2=O)cn1CC` (stereo not drawn) [Example 174] gave a melting point of 210 to 211 °C. The IC50 at human BACE1 lay in the range of 10 to 100 nM.

For the molecule `CCn1cc(C2(c3cccc(-c4cccnc4F)c3)N=C(N)N(C)C2=O)cc1C(=O)C1CC1` (stereo not drawn) [Example 172], the melting point is 98 to 100 °C. The molecule also displayed an IC50 on human BACE1 of 10 to 100 nM.

Molecule `CCC(=O)c1cc(C2(c3cccc(-c4cncnc4)c3)N=C(N)N(C)C2=O)cn1CC(F)(F)F` (stereo not drawn) [Example 201] gave a melting point of 135 to 137 °C. Moreover, on human BACE1, the IC50 was 10 to 100 nM.

Consider `CCC(=O)c1cc(C2(c3ccc(F)c(-c4cccnc4F)c3)N=C(N)N(C)C2=O)cn1CC(F)(F)F` (stereo not drawn) [Example 207], for which the melting point was in the range of 122 to 124 °C. At human BACE1, this molecule registered a concentration for half-maximal inhibition (IC50) of 10 to 100 nM.

`CCCn1cc(C2(c3cccc(-c4cc(F)cnc4Cl)c3)N=C(N)N(C)C2=O)cc1C#N` (stereo not drawn) [Example 232] displayed a melting point of 132 to 134 °C. At human BACE1, this molecule displayed an IC50 of 110 to 1000 nM.

The molecule `CN1C(=O)C(c2cccc(-c3cncnc3)c2)(c2cnn(CC(F)(F)F)c2)N=C1N` (stereo not drawn) [Example 89] showed a melting point of 223 to 225 °C. Moreover, the concentration for half-maximal inhibition (IC50) at human BACE1 fell in the range of 110 to 1000 nM.

As to `CN1C(=O)C(c2cccc(-c3cncnc3)c2)(c2cc(C#N)n(C)c2)N=C1N` (stereo not drawn) [Example 225, 4-[2-Amino-1-methyl-5-oxo-4-(3-pyrimidin-5-ylphenyl)-4,5-dihydro-1H-imidazol-4-yl]-1-methyl-1H-pyrrole-2-carbonitrile], the melting point was in the range of 214 to 225 °C. Besides, the IC50 at human BACE1 is 110 to 1000 nM.

As for `CN1C(=O)C(c2cccc(O)c2)(c2cnn(CC(F)(F)F)c2)N=C1N` (stereo not drawn) [Example 93, 2-amino-5-(3-hydroxyphenyl)-3-methyl-5-[1-(2,2,2-trifluoroethyl)-1H-pyrazol-4-yl]-3,5-dihydro-4H-imidazol-4-one], the melting point is 118 to 120 °C. The IC50 at human BACE1 is above 1000 nM.

`CC(C)CCn1cc(C2(c3cccc(-c4cccnc4F)c3)N=C(N)N(C)C2=O)cn1` (stereo not drawn) [Example 102] showed a melting point of 86 to 90 °C. This molecule yielded an IC50 on human BACE1 of 10 to 100 nM.

Take `CN1C(=O)C(c2cccc(-c3cccnc3F)c2)(c2cnn(CCC3CCCCC3)c2)N=C1N` (stereo not drawn) [Example 104]: the melting point lay within 88 to 90 °C. Further, on human BACE1, the IC50 lay within 10 to 100 nM.

The molecule `CN1C(=O)C(c2ccc(F)c(-c3cncnc3)c2)(c2cnn(CC(F)(F)F)c2)N=C1N` (stereo not drawn) [Example 8, 2-Amino-5-(4-fluoro-3-pyrimidin-5-ylphenyl)-3-methyl-5-[1-(2,2,2-trifluoroethyl)-1H-pyrazol-4-yl]-3,5-dihydro-4H-imidazol-4-one] came in with a melting point of 115 to 117 °C. For the same molecule, the 50% inhibitory concentration (IC50) at human BACE1 was 110 to 1000 nM.

As to `COc1cccc(-c2cccc(C3(c4cnn(CC(F)(F)F)c4)N=C(N)N(C)C3=O)c2)c1` (stereo not drawn) [Example 82], the melting point lay within 95 to 97 °C. On human BACE1, this molecule gave a concentration for half-maximal inhibition (IC50) of 10 to 100 nM.

In turn, `CN1C(=O)C(c2cccc(-c3cccnc3F)c2)(c2cc(C=O)n(CCF)c2)N=C1N` (stereo not drawn) [Example 234, 4-[2-Amino-4-[3-(2-fluoropyridin-3-yl)phenyl]-1-methyl-5-oxo-4,5-dihydro-1H-imidazol-4-yl]-1-(2-fluoroethyl)-1H-pyrrole-2-carbaldehyde] returned a melting point of 218 to 221 °C. Further, at human BACE1, the IC50 lay within 10 to 100 nM.

As to `CCC(=O)c1cc([C@]2(c3cccc(-c4cccnc4F)c3)N=C(N)N(C)C2=O)cn1CC` [Example 185, (5S)-2-Amino-5-(1-ethyl-5-propionyl-1H-pyrrol-3-yl)-5-[3-(2-fluoropyridin-3-yl)phenyl]-3-methyl-3,5-dihydro-4H-imidazol-4-one], the melting point was 94 to 97 °C. At human BACE1, this molecule came in with an IC50 of 10 to 100 nM.

In the case of `CN1C(=O)C(c2cccc(-c3cncnc3)c2)(c2cnn(C3CCCC3)c2)N=C1N` (stereo not drawn) [Example 105], the melting point was in the range of 112 to 115 °C. On human BACE1, this molecule displayed an IC50 of 10 to 100 nM.

Take `CCC(=O)c1cc([C@]2(c3ccc(F)c(-c4cccnc4F)c3)N=C(N)N(C)C2=O)cn1CC` [Example 183A, (5S)-2-Amino-5-(1-ethyl-5-propionyl-1H-pyrrol-3-yl)-5-[4-fluoro-3-(2-fluoropyridin-3-yl)phenyl]-3-methyl-3,5-dihydro-4H-imidazol-4-one]: the melting point is 114 to 116 °C. On human BACE1, the concentration for half-maximal inhibition (IC50) was in the range of 10 to 100 nM.

Molecule `CN1C(=O)C(c2ccc(OC(F)F)cc2)(c2cnn(CC(F)(F)F)c2)N=C1N` (stereo not drawn) [Example 74] had a melting point of 70 to 72 °C. For the same molecule, the IC50 on human BACE1 is above 1000 nM.

As to `CCC(=O)c1cc(C2(c3cccc(-c4cccnc4F)c3)N=C(N)N(C)C2=O)cn1CCCC(F)(F)F` (stereo not drawn) [Example 176], the melting point is 91 to 94 °C. The same molecule came in with an IC50 at human BACE1 of 10 to 100 nM.

`CCC(=O)c1cc(C2(c3cccc(-c4cccnc4F)c3)N=C(N)N(C)C2=O)cn1CC` (stereo not drawn) [Example 155] yielded a melting point of 126 to 128 °C. Also, the IC50 on human BACE1 was 10 to 100 nM.

`CCn1cc(C2(c3cccc(-c4cccnc4F)c3)N=C(N)N(C)C2=O)cc1CO` (stereo not drawn) [Example 239, 2-Amino-5-[1-ethyl-5-(hydroxymethyl)-1H-pyrrol-3-yl]-5-[3-(2-fluoropyridin-3-yl)phenyl]-3-methyl-3,5-dihydro-4H-imidazol-4-one] yielded a melting point of 170 to 172 °C. Moreover, the concentration for half-maximal inhibition (IC50) on human BACE1 is 10 to 100 nM.

The molecule `CCn1cc(C2(c3cccc(-c4cccnc4F)c3)N=C(N)N(C)C2=O)cc1C(=O)N1CCCCC1` (stereo not drawn) [Example 163] had a melting point of 111 to 113 °C. The same molecule had an IC50 on human BACE1 of 10 to 100 nM.

Regarding `COC(=O)c1cc(C2(c3cccc(-c4cccc(OC)c4)c3)N=C(N)N(C)C2=O)cn1CCF` (stereo not drawn) [Example 196], the melting point was in the range of 121 to 124 °C. In addition, at human BACE1, the 50% inhibitory concentration (IC50) lay in the range of 10 to 100 nM.

Molecule `CN1C(=O)C(c2cccc(-c3cccc(F)c3F)c2)(c2cnn(CC(F)(F)F)c2)N=C1N` (stereo not drawn) [Example 87] displayed a melting point of 103 to 105 °C. For the same molecule, the 50% inhibitory concentration (IC50) at human BACE1 is 10 to 100 nM.

`CCn1cc(C2(c3ccc(F)c(-c4cncnc4)c3)N=C(N)N(C)C2=O)cn1` (stereo not drawn) [Example 9, 2-Amino-5-(1-ethyl-1H-pyrazol-4-yl)-5-(4-fluoro-3-pyrimidin-5-ylphenyl)-3-methyl-3,5-dihydro-4H-imidazol-4-one] came in with a melting point of 120 to 121 °C. The IC50 at human BACE1 lay in the range of 10 to 100 nM.

In turn, `CCC(=O)Nc1cccc(C2(c3cc(C(=O)CC)n(CC)c3)N=C(N)N(C)C2=O)c1` (stereo not drawn) [Example 130, N-{3-[2-amino-4-(1-ethyl-5-propionyl-1H-pyrrol-3-yl)-1-methyl-5-oxo-4,5-dihydro-1H-imidazol-4-yl]-phenyl}-propionamide] came in with a melting point of 120 to 141 °C. At human BACE1, this molecule had an IC50 of 110 to 1000 nM.

The molecule `CN1C(=O)C(c2ccc(F)c(-c3cccnc3F)c2)(c2cnn(CC(F)(F)F)c2)N=C1N` (stereo not drawn) [Example 7, 2-Amino-5-[4-fluoro-3-(2-fluoropyridin-3-yl)phenyl]-3-methyl-5-[1-(2,2,2-trifluoroethyl)-1H-pyrazol-4-yl]-3,5-dihydro-4H-imidazol-4-one] registered a melting point above 225 °C. The molecule further returned a half-maximal inhibitory concentration (IC50) on human BACE1 of 110 to 1000 nM.

On to `CCCCn1cc(C2(c3cccc(-c4cncnc4)c3)N=C(N)N(C)C2=O)cn1` (stereo not drawn) [Example 6, 2-Amino-5-(1-butyl-1H-pyrazol-4-yl)-3-methyl-5-(3-pyrimidin-5-ylphenyl)-3,5-dihydro-4H-imidazol-4-one], for which the melting point is 94 to 98 °C. On human BACE1, this molecule displayed an IC50 of 10 to 100 nM.
